Experimental data from patent US5770691A, “Discriminatory substrates for MMP hydrolysis” (Regents of the University of Minnesota, priority 1995, dated 1998).
Like-named read-outs stand apart in the source and are kept apart here. Where a SMILES comes first, the peptide text is derived from it. [ ]: non-standard residue; d: D form. The star is where a group is joined. Dnp = O=[N+]([O-])c1ccc(*)c([N+](=O)[O-])c1; Mca = COc1ccc2c(CC(=O)*)cc(=O)oc2c1; Nva = CCC[C@H](N)C(=O)O

Tests used:
MMP-2 = biological target: T1, MMP-2 (Homo sapiens, UniProt P08253); assay: Fluorometric hydrolysis of synthetic Mca/Lys(Dnp) substrates by MMP-2; format: biochemical; set-up: made in house; host or cells: native secreted protein purified from culture medium of human rheumatoid synovial cells; conditions: for site of hydrolysis by MMP-2: Edman degradation analysis after 36-72 hour treatment of substrate with MMP
T1 sequence (P08253 110-660): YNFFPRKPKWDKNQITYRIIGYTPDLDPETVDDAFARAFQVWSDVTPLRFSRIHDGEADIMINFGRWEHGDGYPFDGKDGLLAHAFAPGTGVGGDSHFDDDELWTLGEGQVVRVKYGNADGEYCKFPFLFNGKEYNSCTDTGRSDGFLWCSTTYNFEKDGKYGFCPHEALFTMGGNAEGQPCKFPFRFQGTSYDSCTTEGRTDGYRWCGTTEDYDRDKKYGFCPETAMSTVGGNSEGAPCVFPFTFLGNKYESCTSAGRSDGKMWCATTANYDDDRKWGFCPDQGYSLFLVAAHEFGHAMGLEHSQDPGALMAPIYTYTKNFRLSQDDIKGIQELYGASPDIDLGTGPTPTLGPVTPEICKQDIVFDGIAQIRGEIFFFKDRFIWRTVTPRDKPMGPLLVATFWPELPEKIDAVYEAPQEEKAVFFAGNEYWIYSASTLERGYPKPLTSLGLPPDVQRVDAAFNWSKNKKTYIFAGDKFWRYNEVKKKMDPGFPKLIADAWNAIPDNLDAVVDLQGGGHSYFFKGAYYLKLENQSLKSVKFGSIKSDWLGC
Description: (§1) All MMPs were purified in zymogen form. ProMMP-1 (Suzuki et al., Biochem., 29, 10261 (1990)), proMMP-2 (Okada et al., Eur. J. Biochem., 194, 721 (1990)), and proMMP-3 (Ito et al., Arch. Biochem. Biophys., 267, 211 (1988)) were purified from the culture medium of human rheumatoid synovial cells stimulated with rabbit macrophage-conditioned medium. ProMMP-9 was purified from the culture medium of HT-1080 cells as described in Morodomi et al., Biochem. J., 285, 603 (1992). ProMMP-2 and proMMP-9 were activated by reacting with 1 mM 4-aminophenylmercuric acetate at 37° C. for 45 minutes and 32 hours, respectively. ProMMP-1 was activated by reacting with 1 mM 4-aminophenylmercuric acetate and an equimolar amount of MMP-3 at 37° C. for 6 hours. After activation, MMP-3 was completely removed from MMP-1 by affinity chromatography using an anti-MMP-3 IgG Affi-Gel 10 column. The resin, Affi-Gel 10 (Biorad, Emoryville, Calif.), was coupled to anti-MMP-3 IgG (Okada et al., Annals of Rheumat. Dis., 48, 645 (1989)) per the manufacturer's protocol. Pro-MMP-3 was activated by reacting with 5 μg/mL chymotrypsin at 37° C. for 2 hours. Chymotrypsin was inactivated with 2 mM diisopropylfluorophosphate. The amounts of active MMP-1, MMP-2, and MMP-3 were determined by titration with tissue inhibitor of metalloproteinase-1(TIMP1) over a concentration range of 0.1-3 μg/mL, while the amount of active MMP-9 was determined by titration with TIMP-2 (0.1-3 μg/mL). TIMP-1 was isolated from the medium of HT-1080 cells as described in Morodomi et al., Biochem J., 285, 603 (1992).
(§2) Substrates were prepared as 10 mM stock solutions in dimethylsulfoxide (DMSO). Fluorescent assays were performed at λex =325 nm and λem =393 nm, which should encounter no interference from Trp residues, using a Hitachi fluorescence spectrophotometer F-3010. Initial total hydrolysis assays were run at a substrate concentration of […] to avoid filtering effects. The change in fluorescence at this concentration was 110 based on total hydrolysis of 1 μM substrate. A typical assay was carried out by incubating 100 μL of various concentrations of a substrate with 10 μL of an enzyme solution (2-20 nM) in 50 mM Tris-HCl, pH 7.5, 0.15M NaCl, 10 mM CaCl2, 0.05% Brij 35, 0.02% NaN3. The reaction was stopped by addition of 900 μl of 3% (v/v) glacial acetic acid. MMP-3 activity at pH 6.0 was measured in 50 mM sodium acetate buffer, pH 6.0, instead of Tris-HCl buffer. The amount of substrate hydrolysis was calculated based on the fluorescence values of the Mca-Arg-Pro-Lys-Pro-Gln standard solution after substraction of the reaction blank value (stopping solution added before the enzyme). Individual kinetic parameters (kcat and KM) were determined over a substrate concentration range of 2.5-75 μM and calculated by double reciprocal plots.

MMP-9 [1] = biological target: T2, MMP-9 (Homo sapiens, UniProt P14780); assay: Fluorometric hydrolysis of synthetic Mca/Lys(Dnp) substrates by MMP-9; format: biochemical; set-up: made in house; host or cells: native secreted protein purified from culture medium of HT-1080 cells; conditions: Edman degradation analysis after 36-72 hour treatment of substrate with MMP
MMP-3 [2] = biological target: T3, MMP-3 (Homo sapiens, UniProt P08254); assay: Fluorometric hydrolysis of synthetic Mca/Lys(Dnp) substrates by MMP-3; format: biochemical; set-up: made in house; host or cells: native secreted protein purified from culture medium of human rheumatoid synovial cells; conditions: Edman degradation analysis after 36-72 hour treatment of substrate with MMP
Target sequence in this assay (P08254 100-477): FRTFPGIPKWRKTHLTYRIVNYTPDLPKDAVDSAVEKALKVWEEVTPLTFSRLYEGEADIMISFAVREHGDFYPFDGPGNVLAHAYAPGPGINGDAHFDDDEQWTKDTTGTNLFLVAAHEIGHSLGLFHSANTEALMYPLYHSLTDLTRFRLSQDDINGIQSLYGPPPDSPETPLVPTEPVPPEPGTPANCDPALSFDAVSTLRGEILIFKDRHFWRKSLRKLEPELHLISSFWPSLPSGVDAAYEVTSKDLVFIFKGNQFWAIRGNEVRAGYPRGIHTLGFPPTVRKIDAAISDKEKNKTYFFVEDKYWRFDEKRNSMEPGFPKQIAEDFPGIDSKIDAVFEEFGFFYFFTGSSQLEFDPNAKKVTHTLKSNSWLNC

MMP-1 = biological target: T4, MMP-1 (Homo sapiens, UniProt P03956); assay: Fluorometric hydrolysis of synthetic Mca/Lys(Dnp) substrates by MMP-1; format: biochemical; set-up: made in house; host or cells: native secreted protein purified from culture medium of human rheumatoid synovial cells; conditions: for site of hydrolysis by MMP-1: Edman degradation analysis after 36-72 hour treatment of substrate with MMP
T4 sequence (P03956 100-469): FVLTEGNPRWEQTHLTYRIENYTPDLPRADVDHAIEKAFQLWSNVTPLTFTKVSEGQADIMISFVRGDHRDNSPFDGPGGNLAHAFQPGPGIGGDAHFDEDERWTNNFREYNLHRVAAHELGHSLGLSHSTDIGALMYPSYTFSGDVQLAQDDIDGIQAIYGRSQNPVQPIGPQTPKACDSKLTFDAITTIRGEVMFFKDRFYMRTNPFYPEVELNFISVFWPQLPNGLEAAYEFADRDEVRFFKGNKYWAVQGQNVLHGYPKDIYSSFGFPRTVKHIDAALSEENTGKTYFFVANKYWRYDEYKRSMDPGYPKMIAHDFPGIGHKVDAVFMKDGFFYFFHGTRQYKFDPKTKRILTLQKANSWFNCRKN
Description: as §1, §2

MMP-3 [3] = biological target: T3, MMP-3; assay: Fluorometric hydrolysis of synthetic Mca/Lys(Dnp) substrates by MMP-3; format: biochemical; set-up: made in house; host or cells: native secreted protein purified from culture medium of human rheumatoid synovial cells; conditions: for kcat /Km: MMP-3, 37° C., pH 7.5
Description: as §1, §2
Target sequence in this assay (P08254 100-477): as the sequence (P08254 100-477) above

MMP-9 [4] = biological target: T2, MMP-9; assay: Fluorometric hydrolysis of synthetic Mca/Lys(Dnp) substrates by MMP-9; format: biochemical; set-up: made in house; host or cells: native secreted protein purified from culture medium of HT-1080 cells
Description: as §1, §2

MMP-3 [5] = biological target: T3, MMP-3; conditions: MMP-3 cleavage, cited from earlier work
Target sequence in this assay (P08254 100-477, species assumed): as the sequence (P08254 100-477) above

MMP-3 [6] = biological target: T3, MMP-3; conditions: cited from earlier work
Target sequence in this assay (P08254 100-477, species assumed): as the sequence (P08254 100-477) above

T2 sequence (P14780 107-707 limits assumed): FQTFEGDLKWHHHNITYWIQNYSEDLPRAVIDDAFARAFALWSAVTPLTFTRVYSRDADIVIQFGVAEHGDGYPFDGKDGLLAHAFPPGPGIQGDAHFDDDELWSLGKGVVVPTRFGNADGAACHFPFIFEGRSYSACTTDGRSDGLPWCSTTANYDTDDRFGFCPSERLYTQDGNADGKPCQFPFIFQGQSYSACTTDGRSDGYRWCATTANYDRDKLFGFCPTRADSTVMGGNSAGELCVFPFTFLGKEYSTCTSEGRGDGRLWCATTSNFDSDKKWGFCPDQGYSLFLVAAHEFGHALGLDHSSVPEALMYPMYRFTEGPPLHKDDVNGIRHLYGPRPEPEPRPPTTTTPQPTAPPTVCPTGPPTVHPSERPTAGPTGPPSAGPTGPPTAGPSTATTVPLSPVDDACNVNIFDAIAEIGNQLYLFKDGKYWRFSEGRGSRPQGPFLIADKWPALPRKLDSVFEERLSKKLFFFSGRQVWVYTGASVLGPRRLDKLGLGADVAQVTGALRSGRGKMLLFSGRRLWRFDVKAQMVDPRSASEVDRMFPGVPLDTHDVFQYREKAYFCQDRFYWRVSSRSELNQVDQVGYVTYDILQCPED

COc1ccc2c(CC(=O)N3CCC[C@H]3C(=O)N[C@@H](CCCCN)C(=O)N3CCC[C@H]3C(=O)N[C@@H](CCC(N)=O)C(=O)N[C@@H](CCC(N)=O)C(=O)N[C@@H](Cc3ccccc3)C(=O)N[C@@H](Cc3ccccc3)C(=O)NCC(=O)N[C@@H](CC(C)C)C(=O)N[C@@H](CCCCNc3ccc([N+](=O)[O-])cc3[N+](=O)[O-])C(=O)NCC(=O)O)cc(=O)oc2c1 [NFF-1, Mca-Pro-Lys-Pro-Gln-Gln-Phe-Phe-Gly-Leu-Lys(Dnp)-Gly] (Mca-PKPQQFFGLK(Dnp)G-OH)
site of hydrolysis by MMP-2 (MMP-2): Gln--Phe bond | site of hydrolysis by MMP-9 (MMP-9 [1]): Gly--Leu bond | site of hydrolysis by MMP-3 (MMP-3 [2]): Gln--Phe bond | ratio of hydrolysis at the Gln-Phe and Gly-Leu bonds by MMP-1 (MMP-1; Edman degradation analysis after 36-72 hour treatment): 3.2 | site of hydrolysis by MMP-1 (MMP-1): Gln--Phe and Gly--Leu bonds | less activity of MMP-1 than MMP-3 towards the substrate (MMP-1; MMP-1 compared with MMP-3): 75% | kcat /Km (MMP-3 [3]): 10,900 S^-1 M^-1 | hydrolysis by MMP-3 compared with MMP-2 (MMP-3 [3]; MMP-3 and MMP-2): equally well | less activity of MMP-9 than MMP-3 towards the substrate (MMP-9 [4]; MMP-9 compared with MMP-3): 60%

CCC[C@H](NC(=O)[C@H](C)NC(=O)[C@H](Cc1ccc(O)cc1)NC(=O)[C@@H]1CCCN1C(=O)[C@H](CCCCN)NC(=O)[C@@H]1CCCN1C(=O)[C@H](CCCNC(=N)N)NC(=O)Cc1cc(=O)oc2cc(OC)ccc12)C(=O)N[C@@H](Cc1c[nH]c2ccccc12)C(=O)N[C@@H](CCSC)C(=O)N[C@@H](CCCCNc1ccc([N+](=O)[O-])cc1[N+](=O)[O-])C(N)=O [NFF-2, Mca-Arg-Pro-Lys-Pro-Tyr-Ala-Nva-Trp-Met-Lys(Dnp)-NH2] (Mca-RPKPYA[Nva]WMK(Dnp)-NH2)
site of hydrolysis by MMP-2 (MMP-2): Ala--Nva bond | hydrolyzed more rapidly than NFF-1 by MMP-2 (MMP-2; rate relative to NFF-1): 5 times | site of hydrolysis by MMP-9 (MMP-9 [1]): Ala--Nva bond | site of hydrolysis by MMP-3 (MMP-3 [2]): Ala--Nva bond | site of hydrolysis by MMP-1 (MMP-1): Ala--Nva bond | MMP-1 activity reduced compared to NFF-1 (MMP-1; relative to NFF-1): ~ 50% | kcat /Km (MMP-3 [3]): 59,400 S^-1 M^-1 | hydrolyzed more rapidly than NFF-1 by MMP-3 (MMP-3 [3]; rate relative to NFF-1): 6 times | hydrolyzed more rapidly by MMP-3 than MMP-1 (MMP-3 [3]; selectivity MMP-3 over MMP-1): 60 times | hydrolysis by MMP-9 (MMP-9 [4]): most rapidly hydrolyzed substrate for MMP-9 reported to date | hydrolyzed more rapidly than NFF-1 by MMP-9 (MMP-9 [4]; rate relative to NFF-1): 14 times

Antithrombin III
kcat /Kb (MMP-3 [5]; determined at 37° C.): < 50 S^-1 M^-1

Dnp--Pro--Tyr--Ala"--"Tyr--Trp--Met--Arg--NH3 (Dnp-PYAYWMR-NH2; not fully specified; printed as Dnp—Pro—Tyr—Ala"—"Tyr—Trp—Met—Arg—NH$_3$) [literature fluorogenic substrate (Netzel-Arnett et al., 1991)]
kcat (MMP-3 [6]; MMP-3, assay at 23° C.): 0.24 S^-1 | Km (MMP-3 [6]; MMP-3, assay at 30° C.): 100 µM | kcat Km (MMP-3 [6]; MMP-3, assay at 37° C.): 2,400 S^-1 M^-1

Dnp-Arg-Pro-Lys-Pro-Leu-Ala-Nva-Trp-NH2 (Dnp-RPKPLA[Nva]W-NH2; SMILES CCC[C@H](NC(=O)[C@H](C)NC(=O)[C@H](CC(C)C)NC(=O)[C@@H]1CCCN1C(=O)[C@H](CCCCN)NC(=O)[C@@H]1CCCN1C(=O)[C@H](CCCNC(=N)N)Nc1ccc([N+](=O)[O-])cc1[N+](=O)[O-])C(=O)N[C@@H](Cc1c[nH]c2ccccc12)C(N)=O) [literature fluorogenic MMP-3 substrate (Niedzwiecki et al., 1992)]
kcat Km (MMP-3 [6]; MMP-3, assay at 25° C.): 45,000 S^-1 M^-1

Gly--Pro--Gln--Gly"--"Ile--Ala--Met--Gln (chain 1 GPQG; chain 2 IAMQ; printed: Gly--Pro--Gln--Gly; printed: Ile--Ala--Met--Gln) [literature synthetic MMP-3 substrate (Fields, 1988)]
Km (MMP-3 [6]; MMP-3, assay at 30° C.): 5600 µM | kcat (MMP-3 [6]; MMP-3, assay at 30° C.): 0.69 S^-1 | kcat Km (MMP-3 [6]; MMP-3, assay at 30° C.): 120 S^-1 M^-1

Human aggrecan: extracellular matrix protein cleaved by MMP-3 at Asn341-Phe342
kcat /Kb (MMP-3 [5]; determined at 22° C.): 4,000 S^-1 M^-1

Human α2 -macroglobulin: protein substrate of MMP-3; cleavage sites Gly679-Leu680 and Phe684-Tyr685
kcat /Kb (MMP-3 [5]; determined at 25° C.): 56,000 S^-1 M^-1

Substance P: 11 residue peptide substrate of MMP-3, cleaved at Gln6-Phe7 [reference compound]
kcat /Kb (MMP-3 [5]; determined at 37° C.): 1,790 S^-1 M^-1

α1 -Protease inhibitor: protease inhibitor cleaved by MMP-3 at Pro357-Met358
kcat /Kb (MMP-3 [5]; determined at 37° C.): 5,400 S^-1 M^-1
